# Test results from the supplement of paper PMC10627819.
# Columns and labels:
# B. subtilis 168 [1] = experiment: fitness (endpoint OD595 vs no drug) (fraction); higher = more growth
# Method in brief: (§1)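 Background-subtracted growth curves were the basis for fitness, taken as the optical density at entry into stationary phase over the robust mean of no-drug control wells. A cap of 1 was applied. The curves came from OD595 readings every 30 min for 14 h at 37 °C, in 384-well plates seeded at OD595 0.01 with 30 µl, or 55 µl for S. pneumoniae.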
# S. aureus Newman [2] = experiment: as above
# Method in brief: as §1
# S. pneumoniae D39V [3] = experiment: as above
# Method in brief: as §1
# S. aureus DSM 20231 [4] = experiment: as above
# Method in brief: as §1
# B. subtilis 168 [5] = test system: B. subtilis 168
# S. aureus Newman [6] = test system: S. aureus Newman
# S. pneumoniae D39V [7] = test system: S. pneumoniae D39V
# S. aureus DSM 20231 [8] = test system: S. aureus DSM 20231
smiles,measurement,setting,value
CN[C@@H]1[C@H](O)[C@H](NC)[C@H]2O[C@@]3(O)C(=O)C[C@@H](C)O[C@H]3O[C@@H]2[C@H]1O [Spectinomycin],fitness,B. subtilis 168 [1]; 2 µg/mL,0.992
same,fitness,B. subtilis 168 [1]; 4 µg/mL,0.964
same,fitness,B. subtilis 168 [1]; 8 µg/mL,0.941
same,fitness,S. aureus Newman [2]; 4 µg/mL,0.963
same,fitness,S. aureus Newman [2]; 8 µg/mL,0.93
same,fitness,S. aureus Newman [2]; 16 µg/mL,0.893
same,fitness,S. pneumoniae D39V [3]; 4 µg/mL,0.956
same,fitness,S. pneumoniae D39V [3]; 8 µg/mL,0.865
same,fitness,S. pneumoniae D39V [3]; 16 µg/mL,0.702
same,fitness,S. aureus DSM 20231 [4]; 4 µg/mL,0.966
same,fitness,S. aureus DSM 20231 [4]; 8 µg/mL,0.961
same,fitness,S. aureus DSM 20231 [4]; 16 µg/mL,0.851
same,MIC,B. subtilis 168 [5],8 µg/mL
same,MIC,S. aureus Newman [6],16 µg/mL
same,MIC,S. pneumoniae D39V [7],64 µg/mL
same,MIC,S. aureus DSM 20231 [8],16 µg/mL
